From patent US12497396B2, “Nitrogen-containing heterocyclic derivatives, method therefor and application therefor as inhibitors of KRAS G12C for the treatment of cancers” (SHANGHAI HANSOH BIOMEDICAL CO., LTD., priority 2019, dated 2025) come the findings set out here.

In one data set the target is T1, CYP2C9 (Homo sapiens, UniProt P11712).
T1 construct: from tissue; host or cells: human liver microsomes
Kind of data set: CYP enzyme single point inhibition, human liver microsomes, 2C9. Type of data set: in vitro ADME. The conditions noted are these: single point method. The protocol:
(§1) Using human liver microsomal incubation system, the inhibition of CYP450 enzyme subtypes by compounds was rapidly predicted by single point method.
(§2) 2.5 mM NADPH: 100 mM phosphate buffer was added to 4.165 mg of NADPH (reduced nicotinamide adenine dinucleotide phosphate) to 2 mL. 0.25 mg/mL microsome: 4 mL of 100 mM phosphate buffer was added to 50 μL of 20 mg/mL microsome and mixed well.
(§3) The embodiment compound to be tested was weighed and diluted to 10 mM with DMSO and then diluted to 100 μM with 100 mM phosphate buffer.
(§4) • 1. In a 96-well plate, 40 μL of liver microsomes, 10 μL of substrate, 10 μL of compound to be tested were pre-incubated for 3 min. • 2. 40 μL of NADPH was added. • 3. 300 μL of acetonitrile termination solution containing internal standard was added at 20 min. • 4. Centrifugal injection.

In another data set the target is T2, CYP2C19 (Homo sapiens, UniProt P33261).
T2 construct: from tissue; host or cells: human liver microsomes
T2 sequence (P33261 whole entry): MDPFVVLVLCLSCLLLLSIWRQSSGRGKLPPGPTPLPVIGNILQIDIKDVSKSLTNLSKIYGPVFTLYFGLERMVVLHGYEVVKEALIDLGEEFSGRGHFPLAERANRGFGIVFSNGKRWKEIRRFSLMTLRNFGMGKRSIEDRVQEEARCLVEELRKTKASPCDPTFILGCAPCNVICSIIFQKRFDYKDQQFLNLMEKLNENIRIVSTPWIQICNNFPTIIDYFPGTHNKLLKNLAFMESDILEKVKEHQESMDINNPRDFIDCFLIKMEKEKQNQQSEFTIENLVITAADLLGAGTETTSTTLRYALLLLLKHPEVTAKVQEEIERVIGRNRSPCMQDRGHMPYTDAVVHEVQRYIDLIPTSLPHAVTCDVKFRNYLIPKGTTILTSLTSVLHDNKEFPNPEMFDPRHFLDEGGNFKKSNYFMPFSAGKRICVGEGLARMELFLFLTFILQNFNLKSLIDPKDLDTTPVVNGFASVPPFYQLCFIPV
Kind of data set: CYP enzyme single point inhibition, human liver microsomes, 2C19. The class given is in vitro ADME. The conditions noted are these: single point method. The protocol:
as §1, §2, §3, §4

In the next data set the target is T3, CYP3A4 (Homo sapiens, UniProt P08684).
T3 construct: from tissue; host or cells: human liver microsomes
T3 sequence (P08684 whole entry): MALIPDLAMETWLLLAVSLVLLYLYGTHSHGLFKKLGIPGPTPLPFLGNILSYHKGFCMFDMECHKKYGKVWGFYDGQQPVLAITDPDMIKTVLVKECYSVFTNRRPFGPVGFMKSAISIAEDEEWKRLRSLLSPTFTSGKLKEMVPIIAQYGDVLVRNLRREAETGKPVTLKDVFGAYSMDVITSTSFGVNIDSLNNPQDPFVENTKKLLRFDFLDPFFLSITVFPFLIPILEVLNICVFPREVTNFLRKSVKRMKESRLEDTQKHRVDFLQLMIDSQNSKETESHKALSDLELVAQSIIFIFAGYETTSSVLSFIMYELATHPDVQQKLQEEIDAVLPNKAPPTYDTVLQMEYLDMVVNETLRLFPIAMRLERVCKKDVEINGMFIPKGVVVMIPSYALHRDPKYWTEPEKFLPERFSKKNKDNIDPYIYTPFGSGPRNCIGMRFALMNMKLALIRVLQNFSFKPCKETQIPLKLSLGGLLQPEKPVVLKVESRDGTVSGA
The data set can be described thus: CYP enzyme single point inhibition, human liver microsomes, 3A4. Type of data set: in vitro ADME. The settings on record: single point method. Here is the method: as §1, §2, §3, §4

In data set [1] the test system is human lung cancer NCI-H358 cell xenograft. Kind of data set: In vivo pharmacodynamics on human lung cancer NCI-H358 cell xenograft tumor model. Details: species or system BALB/c nude mice. The protocol:
• BALB/c nude mice, 6-8 weeks old, female, purchased from Shanghai Xipuer-Bikai Experimental Animal Co., Ltd. 6.3.2 Cell Culture and Cell Suspension Preparation • 1) MiaPaca-2 cells were taken out from the cell bank and resuscitated with DMEM medium (DMEM+10% FBS), the resuscitated cells were placed in a cell culture flask (labeled with cell type, date, name of cultured person, etc.) and cultured in a CO2 incubator (incubator temperature was 37° C., CO2 concentration was 5%) (the method of resuscitating NCI-H358 cells was the same as MiaPaca-2 cells in test embodiment 5, and the culture medium was changed to RPMI-1640 medium). • 2) Passage was conducted every three to five days, and the cells was continued to be cultured in CO2 incubator after passage. The process was repeated until the cell count meets the in vivo pharmacodynamic requirements. • 3) MiaPaca-2 cells were collected and counted by automatic cell counter, according to the counting results, the cells were re-suspended with PBS and Matrigel (ratio was 1:1) to make cell suspension (cell density was 5×10^7/mL), then placed in a ice box for use (NCI-H358 cells were re-suspended with PBS without adding Matrigel, cell density was 1×10^8/mL). 6.3.3 Sample Preparation: • 1) Solvent: solvent (0.5% CMC-Na+1% Tween 80), storage condition: 4° C.
0.5 g of CMC-Na was weighted, dissolved in ddH2O, then 1.0 mL of Tween 80 was added and the mixture was stirred to mix well, and the volume was finally set to 100 mL. • 2) Compound to be tested (10 mg/kg) was prepared:
8.42 mg of AMG510 compound was weighted, 8.260 mL of solvent was added, a uniform solution was obtained by ultrasound, vortexing and stirring.
7.81 mg of embodiment compound 165-1 was weighted, 7.654 mL of solvent was added, a uniform solution was obtained by ultrasound, vortexing and stirring.
• 1) Before inoculation, nude mice were labeled with disposable universal ear tags of rats and mice; • 2) when inoculating, the cell suspension was mixed well, 0.1-1 mL cell suspension was extracted with a 1 mL syringe, bubbles were removed, and then the syringe was put on an ice bag for later use; • 3) the nude mice was held with left hand, the right back of nude mice near the right shoulder (inoculation site) was disinfected with 75% alcohol, and inoculation was started after 30 seconds; • 4) the experimental nude mice were inoculated in turn (each mouse was inoculated with 0.1 mL of cell suspension); 6.3.4 Tumor-Bearing Mouse were Measured, Grouped, and Administered: • 1) According to the tumor growth, the tumor was measured on the 18th day after inoculation, and the tumor size was calculated. tumor volume (mm^3)=length (mm)×width (mm)×width (mm)/2 Tumor volume calculation: • 2) The tumor-bearing mice were grouped according to their body weight and tumor size using a randomized grouping method. • 3) According to the grouping results, the administration of the test drug was started (administration method: oral administration; administration dose: 10 mg/kg; administration volume: 10 mL/kg; administration frequency: once a day; administration period: 21 days; solvents: 0.5% CMC/1% Tween 80). • 4) The tumor was measured and weighed twice a week after the test drug was started to be given. • 5) After the experiment, all animals were euthanized. • 6) Data was processed with software such as Excel. […]

Data set [2] can be described thus: Pharmacokinetics in MiaPaca 2 tumor-bearing mice (plasma, tumor). The class given is in vivo. The conditions noted are these: female, mouse, po, 6 mg/kg p.o. Here is the method: The pharmacokinetic behavior of embodiment compound 165 and AMG-510 compound, administered orally at a dose of 6 mg/kg, in mice (plasma, tumor tissue and intestine) was studied using MiaPaca 2 tumor-bearing mice as test animals.
24 MiaPaca 2 tumor-bearing mice, females. 3 for each time point (0 h, 1 h, 2 h, 4 h, 6 h, 8 h, 16 h, 24 h). Shanghai xipuer-bikai Laboratory Animal Co., Ltd, Animal Production License No. (SCXK (Shanghai) 2018-0006.
Embodiment compound 165-1 and compound AMG-510 were weighed and dissolved in the solution, the mixture was shaken well, and ultrasound was performed for 15 minutes to obtain a uniform suspension with a concentration of 0.6 mg/mL.
MiaPaca 2 tumor-bearing mice were administered at a dose of 6 mg/kg in a volume of 10 mL/kg, respectively, based on body weight p.o. after fasting (animals were not administered at point 0 h).
Before and after administration, mice were sacrificed with CO2, 0.5 mL blood was collected from the heart and placed in EDTA-2K tube, centrifuged at 4° C. […] The duodenum, ileum and colon tissues were cut with scissors, the contents were removed and cleaned twice with PBS, after absorbing water with absorbent paper, they were weighed, placed in a 2 mL centrifuge tube and stored at −80° C.

Where [3] appears, read: 3A4-M, read-out: IC50 (nM) 3A4-M.
[4] abbreviates: 3A4-T, read-out: IC50 (nM) 3A4-T.

Like-named read-outs stand apart in the source and are kept apart here.

T1 sequence (P11712 whole entry): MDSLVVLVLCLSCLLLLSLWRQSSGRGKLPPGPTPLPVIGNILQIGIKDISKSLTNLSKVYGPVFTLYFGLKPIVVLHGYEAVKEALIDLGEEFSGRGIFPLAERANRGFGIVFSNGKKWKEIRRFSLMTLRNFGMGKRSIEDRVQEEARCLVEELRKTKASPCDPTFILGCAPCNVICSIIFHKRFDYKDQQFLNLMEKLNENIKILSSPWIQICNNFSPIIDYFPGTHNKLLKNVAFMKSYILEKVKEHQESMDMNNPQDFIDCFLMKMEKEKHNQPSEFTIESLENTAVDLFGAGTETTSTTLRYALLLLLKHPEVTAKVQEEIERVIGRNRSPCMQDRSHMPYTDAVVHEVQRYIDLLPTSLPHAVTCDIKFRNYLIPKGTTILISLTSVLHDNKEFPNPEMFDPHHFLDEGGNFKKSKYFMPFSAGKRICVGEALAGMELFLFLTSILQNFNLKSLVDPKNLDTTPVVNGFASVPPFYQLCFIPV

As to `C=CC(=O)N1C[C@H](C)N(c2nc(=O)n(-c3c(SC)ccnc3C(C)C)c3nc(-c4c(O)cccc4F)c(F)cc23)C[C@H]1C` (single isomer, unassigned) [Embodiment 114-1], the IC50 on CYP2C9 is 84.6 nM; against CYP2C19, above 100 nM; at CYP3A4 (setting [3]) it was 19 nM; on CYP3A4 (setting [4]) it was above 100 nM.

For the compound `C=CC(=O)N1C[C@H](C)N(c2nc(=O)n(-c3c(SC)ccnc3C(C)C)c3nc(-c4c(N)ccc(Cl)c4F)c(Cl)cc23)C[C@H]1C` (single isomer, unassigned) [Embodiment 165-1], the “TGI (%) Day 15” value in data set [1] (Day 15, 10 mpk oral once a day) is listed as 67.41%. Moreover, in data set [1] (Day 15, 10 mpk oral once a day), the “tumor volume (mm^3, Mean ± SD) Day 15” value is reported as 267 ± 155 mm^3. The “ΔT/ΔC(%) Day 15” value in data set [1] (Day 15, 10 mpk oral once a day) is 32.59%. The “tumor volume (mm^3, Mean ± SD) Day 0” value in data set [1] (baseline Day 0, 10 mpk oral once a day) is on record as 203 ± 74 mm^3. For the same compound, the half-inhibitory concentration (IC50) on CYP2C9 was found to be 58.8 nM; against CYP2C19, 28.8 nM; at CYP3A4 (setting [3]) it was 4.7 nM; on CYP3A4 (setting [4]), 9.1 nM. In addition, the Kp in data set [2] (exposure in tumor to exposure in plasma, read-out: Ratio (T/P)) turned out to be 0.57. The MRT in data set [2] (plasma, read-out: MRT (hr) Plasma) is 0.9 h; in data set [2] (tumor, read-out: MRT (hr) Tumor), 1.5 h. The half-life in data set [2] (plasma, read-out: T1/2 (hr) Plasma (converted)) was 0.5 h; in data set [2] (tumor, read-out: T1/2 (hr) Tumor (converted)) it was 0.9 h.
